Laboratory results as given in US20050137176A1, “Use of a steroidal or non-steroidal EcR receptor ligand in a cosmetic or dermatological preparation for maintaining cutaneous homeostasis” (L'OREAL, priority 2003, published 2005).

Assays:
MRP8/MRP14 mRNA = test: Expression of MRP8/MRP14 messenger RNA in reconstructed epidermides; format: cell-based; details: treatment for 7 days
Description: (§1) Ecdysterone was applied to the medium of reconstructed epidermides under the same conditions as those of Example 1.
(§2) After treatment for 7 days, the epidermides were harvested.

psoriasin mRNA = test: Expression of psoriasin messenger RNA in reconstructed epidermides; format: cell-based; details: treatment for 7 days
Description: as §1, §2

[1] = test system: keratinocytes derived from a mammoplasty; test: Measurement of cell multiplication of keratinocytes (number of cells per flask); format: cell-based, human
Experimental: The keratinocytes are derived from a mammoplasty. These keratinocytes were isolated and then cultured in KGM medium (Clonetics) supplemented with growth factor (EGF (Epidermal Growth Factor): 10 ng/ml, 0.4 μg/ml, insulin 5 μg/ml, BPE (Bovine Pituitary Extract) 4 ml/L). The cells are treated with ecdysterone for 8 hours to 48 hours. There is no EGF in the culture medium during the treatment with ecdysterone. […]

[2] = test system: normal human keratinocytes; test: Cell cycle analysis (DNA content by flow cytometry); format: cell-based; details: as a function of the amount of ecdysterone in the keratinocyte culture medium
Experimental: The cell cycle analysis consists in studying the DNA content of a cell population by flow cytometry. These studies were performed on normal human keratinocytes cultured as a monolayer in a defined medium (KGM-Clonetics).
The keratinocytes are derived from a mammoplasty. These keratinocytes were isolated and then cultured in KGM medium supplemented with growth factors (EGF: 10 ng/ml, 0.4 μg/ml, insulin 5 μg/ml, BPE (Bovine Pituitary Extract) 4 mL).
The cells are treated with ecdysterone for 8 hours to 48 hours. There is no EGF in the culture medium during the treatment with ecdysterone.
Ecdysterone was tested at the following concentrations: 1 μg/ml, 0.1 μg/ml and 0.01 μg/ml.
The protocol followed for the cell cycle analysis in flow cytometry is described in the following publication: Staiano-Coico L., Higgins P. J., Darzynkiewicz Z. et al; 1986 Human keratinocyte culture. Identification and stagind of epidermal cell subpopulations. J. Clin. Invest. 77, 396-404. The analysis was performed using a Facs Calibur 3C Trieur flow cytometer from the company Becton-Dickinson.

MRP8 and MRP14 = test: Protein markers MRP8 and MRP14 by immunofluorescence on histological slices; format: cell-based; details: reconstructed epidermides, conditions of Example 1
Experimental: Ecdysterone was added to the medium of reconstructed epidermides under the same conditions as those of Example 1.
The proteins MRP8 and MRP14 are proteins that are strongly expressed in reconstructed skin, in psoriatic skin and by keratinocytes that are hyperproliferative but that have, however, maintained the capacity to differentiate. The analysis of the protein markers MRP8 and MRP14 was performed by immunofluorescence on histological slices.

[3] = test system: reconstructed epidermides; test: Measurement of the thickness of the epidermis (histology, HES staining, image analysis); format: cell-based; details: ecdysterone in culture medium of reconstructed epidermes, 7 days
Experimental: Reconstructed epidermides were prepared according to the technique of Asselineau et al., 1985 (Asselineau D, Bernard B A, Bailly C. & Darmon M: Epidermal morphogenesis and induction of 67 kD Keratin polypeptide by culture at the air liquid interface Exp Cell Res 159: 536-539).
From the first day of exposure to the air/liquid interface, the epidermides were cultured in the presence of ecdysterone in the culture medium (1 to 1000 μg/ml). The epidermes were cultured for 7 days. The treatment was renewed every 48 hours by changing the culture medium. After treatment for 7 days, the epidermes were harvested. The histological analysis is performed after staining with HES (hematoxylin eosin saffron).
Epidermal thickness measurements were performed on histological slices. To do this, 10 measurements are taken on a field. For each sample, 5 fields are counted. These measurements are performed using a Leica Q600S image analysis system with an ×10 objective lens. The mean thickness obtained for each sample corresponds to 50 measurements taken.

CC(C)(O)CC[C@@H](O)[C@](C)(O)[C@H]1CC[C@@]2(O)C3=CC(=O)[C@@H]4C[C@@H](O)[C@@H](O)C[C@]4(C)[C@H]3CC[C@]12C [Ecdysterone, (2b, 3b, 5b,22R)-2,3,14,20,22,25-hexahydroxycholest-7-en-6-one]
Reduction of the expression of MRP8/MRP14 mRNA (factor) (MRP8/MRP14 mRNA): 1.7
Reduction of the expression of psoriasin mRNA (factor) (psoriasin mRNA): 3.5
No of cells/flask ([1]; 0.001 μg/ml, 16 hours, second series): 3.6 × 10^5 cells/flask
No of cells/flask ([1]; 0.001 μg/ml, 24 hours, second series): 3.6 × 10^5 cells/flask
No of cells/flask ([1]; 0.001 μg/ml, 48 hours, second series): 1.6e+06 cells/flask
No of cells/flask ([1]; 0.01 μg/ml, 16 hours, first series): 0.8 × 10^6 cells/flask
No of cells/flask ([1]; 0.01 μg/ml, 16 hours, second series): 2.5 × 10^5 cells/flask
No of cells/flask ([1]; 0.01 μg/ml, 24 hours, first series): 1.0 × 10^6 cells/flask
No of cells/flask ([1]; 0.01 μg/ml, 24 hours, second series): 5.7 × 10^5 cells/flask
No of cells/flask ([1]; 0.01 μg/ml, 48 hours, second series): 1.6 × 10^6 cells/flask
No of cells/flask ([1]; 0.1 μg/ml, 8 hours, first series): 0.8 × 10^6 cells/flask
No of cells/flask ([1]; 0.1 μg/ml, 16 hours, first series): 1.0 × 10^6 cells/flask
No of cells/flask ([1]; 0.1 μg/ml, 16 hours, second series): 3.6 × 10^5 cells/flask
No of cells/flask ([1]; 0.1 μg/ml, 24 hours, first series): 1.1 × 10^6 cells/flask
No of cells/flask ([1]; 0.1 μg/ml, 24 hours, second series): 5.2 × 10^5 cells/flask
No of cells/flask ([1]; 0.1 μg/ml, 48 hours, second series): 1.5 × 10^6 cells/flask
No of cells/flask ([1]; 1 μg/ml, 8 hours, first series): 0.7 × 10^6 cells/flask
No of cells/flask ([1]; 1 μg/ml, 16 hours, first series): 0.5 × 10^6 cells/flask
No of cells/flask ([1]; 1 μg/ml, 24 hours, first series): 1.1 × 10^6 cells/flask
Number of cells relative to the control cells ([1]; after treatment for 48 hours): no significant increase in the number of cells
Phases of the cell cycle (cell population between G0/G1 and G2/M) [2]: change in the cell population between the phases G0/G1 and G2/M
Expression of the proteins MRP8 and MRP14 on histological slices (MRP8 and MRP14): restricts the expression of MRP8 and MRP14 to the upper layers of the epidermis
Parakeratosis or reduction in the thickness of the horny layer [3]: not accompanied by parakeratosis
Thickness of the epidermis at the level of the live layers [3]: increase in the thickness of the epidermis at the level of the live layers
